These results are taken from patent US20260167619A2, “INDOLINE COMPOUNDS AND DERIVATIVES AS EGFR INHIBITORS” (BeOne Medicines I GmbH, priority 2020, published 2026).

For assay [1], the target named is EGFR(Dell9_T790M_C797S) (aa 669-1210, in house) (Homo sapiens, UniProt P00533, T790M/C797S, form not given). Nature of the assay: Biochemical EGFR inhibition assay (TR-FRET), Del19/T790M/C797S mutant. As to conditions: ATP at Km, 15 min pre-incubation, 60 min reaction; read-out: Del_TM_CS (Km ATP) IC50. The method, then: (§1) Compounds were tested for inhibition of kinase activity against EGFR (aa668-1210, Invitrogen), EGFR(L858R_T790M_C797S) (aa695-end, Invitrogen) and EGFR(Dell9_T790M_C797S) (aa 669-1210, in house) in assays based on time-resolved fluorescence-resonance energy transfer (TR-FRET) methodology. Recombinant EGFR, EGFR(L858R_T790M_C797S) or EGFR(Dell9_T790M_C797S) was pre-incubated with the compounds at room temperature for 15 minutes in an assay buffer containing 50 mM HEPES pH7.5, 10 mM MgCl2, 2 mM DTT, 1 mM EGTA, 0.1% BSA, 0.01% Tween-20. The reactions were initiated by the addition of ATP (at the concentration of ATP Km) and substrate Biotin-Poly GT. After reaction at room temperature for 60 minutes, stop/detection solution was added. The stop/detection solution contained Eu^3+ cryptate-conjugated mouse monoclonal antibody (PT66) anti-phosphotyrosine and XL665-conjugated streptavidin in buffer containing 50 mM HEPES pH7.0, 800 mM KF, 20 mM EDTA, and 0.1% BSA. Plates were sealed and incubated at room temperature for 1 hour, and the TR-FRET signals (ratio of fluorescence emission at 665 nm over emission at 620 nm with excitation at 337 nm wavelength) were recorded on a PHERAstar FS plate reader (BMG Labtech). The residual enzyme activity in presence of increasing concentrations of compounds was calculated based on the ratio of fluorescence at 665 nm to that at 620 nm. The IC50 for each compound was derived from fitting the data to the four-parameter logistic equation by Dotmatics or Graphpad Prism software.
Sequence of EGFR(Dell9_T790M_C797S) (aa 669-1210, in house) (P00533 with tags, fused parts or gaps DEL746-750/T790M/C797S, form open): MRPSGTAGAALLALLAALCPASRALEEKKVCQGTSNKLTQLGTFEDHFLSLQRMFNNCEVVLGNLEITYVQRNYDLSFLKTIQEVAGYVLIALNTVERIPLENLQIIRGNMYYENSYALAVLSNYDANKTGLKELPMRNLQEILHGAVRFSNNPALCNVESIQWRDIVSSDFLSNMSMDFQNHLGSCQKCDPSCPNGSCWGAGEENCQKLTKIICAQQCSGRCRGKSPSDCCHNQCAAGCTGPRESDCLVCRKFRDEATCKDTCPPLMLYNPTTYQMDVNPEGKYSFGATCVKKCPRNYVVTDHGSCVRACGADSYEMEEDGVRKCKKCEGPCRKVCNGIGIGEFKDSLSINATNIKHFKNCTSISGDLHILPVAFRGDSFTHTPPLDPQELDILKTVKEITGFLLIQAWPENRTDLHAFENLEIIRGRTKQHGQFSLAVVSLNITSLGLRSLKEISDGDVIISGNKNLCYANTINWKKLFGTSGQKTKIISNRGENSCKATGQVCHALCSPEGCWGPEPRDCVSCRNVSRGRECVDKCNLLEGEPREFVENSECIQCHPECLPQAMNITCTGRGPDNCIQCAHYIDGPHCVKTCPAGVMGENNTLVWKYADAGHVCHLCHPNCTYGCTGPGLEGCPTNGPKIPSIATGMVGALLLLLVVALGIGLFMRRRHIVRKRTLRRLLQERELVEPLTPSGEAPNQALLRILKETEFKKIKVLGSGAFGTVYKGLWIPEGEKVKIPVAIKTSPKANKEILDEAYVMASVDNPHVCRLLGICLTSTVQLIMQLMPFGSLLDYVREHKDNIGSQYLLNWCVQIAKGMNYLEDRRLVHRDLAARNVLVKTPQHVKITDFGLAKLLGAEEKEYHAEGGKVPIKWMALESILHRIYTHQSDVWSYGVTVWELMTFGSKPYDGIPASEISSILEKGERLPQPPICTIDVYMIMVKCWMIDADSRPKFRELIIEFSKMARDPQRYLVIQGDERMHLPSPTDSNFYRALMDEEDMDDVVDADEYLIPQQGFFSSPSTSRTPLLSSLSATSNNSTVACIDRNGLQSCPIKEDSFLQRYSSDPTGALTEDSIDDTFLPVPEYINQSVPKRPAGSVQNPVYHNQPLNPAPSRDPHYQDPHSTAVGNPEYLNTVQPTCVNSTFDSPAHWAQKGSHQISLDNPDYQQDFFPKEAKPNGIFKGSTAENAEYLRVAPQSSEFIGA
(§2) These biochemical EGFR enzyme form compound dose-response assays quantify the kinase activity via phosphorylation of a tagged poly-GT substrate. The results of the assay are provided as IC50 values.

The target in assay [2] is T1, EGFR(L858R_T790M_C797S) (aa695-end, Invitrogen) (Homo sapiens, UniProt P00533, C797S/L858R/T790M).
T1 construct: purchased Invitrogen
T1 sequence (P00533 695-1210 T790M/C797S/L858R): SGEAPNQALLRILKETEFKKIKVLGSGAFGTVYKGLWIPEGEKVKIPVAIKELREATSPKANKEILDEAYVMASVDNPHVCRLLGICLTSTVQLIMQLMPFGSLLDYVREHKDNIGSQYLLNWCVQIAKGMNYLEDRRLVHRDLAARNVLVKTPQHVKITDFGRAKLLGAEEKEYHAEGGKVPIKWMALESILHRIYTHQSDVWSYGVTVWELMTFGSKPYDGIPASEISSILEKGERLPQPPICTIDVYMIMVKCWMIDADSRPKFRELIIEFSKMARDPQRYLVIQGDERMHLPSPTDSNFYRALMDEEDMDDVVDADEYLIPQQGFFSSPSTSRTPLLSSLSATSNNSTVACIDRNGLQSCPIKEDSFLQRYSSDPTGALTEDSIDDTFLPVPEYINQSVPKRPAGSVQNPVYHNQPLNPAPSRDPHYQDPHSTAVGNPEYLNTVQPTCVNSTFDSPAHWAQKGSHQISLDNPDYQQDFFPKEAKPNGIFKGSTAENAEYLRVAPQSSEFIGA
Nature of the assay: Biochemical EGFR inhibition assay (TR-FRET), L858R/T790M/C797S mutant. As to conditions: ATP at Km, 15 min pre-incubation, 60 min reaction; read-out: LR_TM_CS (Km ATP) IC50. The method, then: as §1, §2
A general note: TR-FRET usually uses a lanthanide donor and a delayed reading to cut background.

For assay [3], the target named is T2, EGFR (aa668-1210, Invitrogen) (Homo sapiens, UniProt P00533).
T2 construct: EGFR (aa668-1210, Invitrogen); purchased Invitrogen
T2 sequence (P00533 668-1210): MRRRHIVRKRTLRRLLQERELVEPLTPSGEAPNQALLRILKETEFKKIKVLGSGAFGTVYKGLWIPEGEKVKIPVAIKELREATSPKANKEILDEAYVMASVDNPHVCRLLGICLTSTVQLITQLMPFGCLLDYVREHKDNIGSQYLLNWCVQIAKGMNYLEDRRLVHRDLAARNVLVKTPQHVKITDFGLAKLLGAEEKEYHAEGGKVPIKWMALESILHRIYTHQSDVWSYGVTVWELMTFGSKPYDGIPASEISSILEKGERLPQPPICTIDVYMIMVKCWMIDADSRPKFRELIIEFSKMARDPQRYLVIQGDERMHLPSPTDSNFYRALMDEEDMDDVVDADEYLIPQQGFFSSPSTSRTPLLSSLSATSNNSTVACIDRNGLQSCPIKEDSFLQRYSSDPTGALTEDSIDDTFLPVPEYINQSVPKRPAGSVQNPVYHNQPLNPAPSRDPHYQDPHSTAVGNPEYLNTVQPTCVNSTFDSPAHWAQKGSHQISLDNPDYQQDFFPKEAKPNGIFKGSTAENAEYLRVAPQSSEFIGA
Nature of the assay: Biochemical EGFR inhibition assay (TR-FRET), wild-type EGFR. As to conditions: ATP at Km, 15 min pre-incubation, 60 min reaction; read-out: WT (Km ATP) IC50. The method, then: as §1, §2

For orientation: IC50 means the concentration that inhibits the measured activity by half.

For the compound `CN1CCN(C2CCN(c3ccc(Nc4nc(Nc5cccc6c5N(S(C)(=O)=O)CC6)c5cc[nH]c5n4)cc3F)CC2)CC1` [Example 79, N^2-(3-fluoro-4-(4-(4-methylpiperazin-1-yl)piperidin-1-yl)phenyl)-N^4-(1-(methylsulfonyl)indolin-7-yl)-7H-pyrrolo[2,3-d]pyrimidine-2,4-diamine], the IC50 in assay [1] is 0.29 nM; in assay [2], 0.26 nM; in assay [3], 14 nM.
For `CN1CCN(C2CCN(c3ccc(Nc4nc(Nc5cccc6c5N(S(C)(=O)=O)CC6)c5cc[nH]c5n4)cc3Cl)CC2)CC1` [Example 80, N^2-(3-chloro-4-(4-(4-methylpiperazin-1-yl)piperidin-1-yl)phenyl)-N^4-(1-(methylsulfonyl)indolin-7-yl)-7H-pyrrolo[2,3-d]pyrimidine-2,4-diamine] the same measures were 0.85 nM, 0.7 nM and 40.4 nM.
As for `COc1cc(Nc2nc(Nc3cccc4c3N(S(C)(=O)=O)CC4)c3cc[nH]c3n2)ccc1N1CCC(N2CCN(C)CC2)CC1` [Example 81, N^2-(3-methoxy-4-(4-(4-methylpiperazin-1-yl)piperidin-1-yl)phenyl)-N^4-(1-(methylsulfonyl)indolin-7-yl)-7H-pyrrolo[2,3-d]pyrimidine-2,4-diamine], the IC50 in assay [1] is 0.76 nM; in assay [2], 0.44 nM; in assay [3] it was 82.7 nM.
Taken in the same sequence, the figures for `Cc1cc(Nc2nc(Nc3cccc4c3N(S(C)(=O)=O)CC4)c3cc[nH]c3n2)ccc1N1CCC(N2CCN(C)CC2)CC1` [Example 82, N^2-(3-methyl-4-(4-(4-methylpiperazin-1-yl)piperidin-1-yl)phenyl)-N^4-(1-(methylsulfonyl)indolin-7-yl)-7H-pyrrolo[2,3-d]pyrimidine-2,4-diamine] were 0.85 nM, 0.7 nM and 39.7 nM.
Taken in the same sequence, the figures for `COc1cc(C2CCN(CCN(C)C)CC2)c(C)cc1Nc1nc(Nc2cccc3c2N(S(C)(=O)=O)CC3)c2cc[nH]c2n1` [Example 109, N^2-(4-(1-(2-(dimethylamino)ethyl)piperidin-4-yl)-2-methoxy-5-methylphenyl)-N^4-(1-(methylsulfonyl)indolin-7-yl)-7H-pyrrolo[2,3-d]pyrimidine-2,4-diamine] were 10 nM, 3.1 nM and 433 nM.
Taken in the same sequence, the figures for `COc1cc(N2C[C@@H]3C[C@H]2CN3C)ccc1Nc1nc(Nc2cccc3c2N(S(C)(=O)=O)CC3)c2cc[nH]c2n1` [Example 110, N^2-(2-methoxy-4-((1S,4S)-5-methyl-2,5-diazabicyclo[2.2.1]heptan-2-yl)phenyl)-N^4-(1-(methylsulfonyl)indolin-7-yl)-7H-pyrrolo[2,3-d]pyrimidine-2,4-diamine] were 10.7 nM, 5.1 nM and 572 nM.
Take `COc1cc(N2[C@@H]3CC[C@H]2CN(C)C3)ccc1Nc1nc(Nc2cccc3c2N(S(C)(=O)=O)CC3)c2cc[nH]c2n1` [Example 111, N^2-(2-methoxy-4-((1R,5S)-3-methyl-3,8-diazabicyclo[3.2.1]octan-8-yl)phenyl)-N^4-(1-(methylsulfonyl)indolin-7-yl)-7H-pyrrolo[2,3-d]pyrimidine-2,4-diamine]: the IC50 in assay [1] is 11.1 nM; in assay [2], 2.8 nM; in assay [3], 146 nM.
For `COc1cc(N(C)CCN(C)C)ccc1Nc1nc(Nc2cccc3c2N(S(C)(=O)=O)CC3)c2cc[nH]c2n1` [Example 112, N^2-(4-((2-(dimethylamino)ethyl)(methyl)amino)-2-methoxyphenyl)-N^4-(1-(methylsulfonyl)indolin-7-yl)-7H-pyrrolo[2,3-d]pyrimidine-2,4-diamine], the IC50 came out at 14.6 nM in assay [1], 2.9 nM in assay [2] and 840 nM in assay [3].
For the compound `COc1cc(-c2cnn(CCN(C)C)c2)ccc1Nc1nc(Nc2cccc3c2N(S(C)(=O)=O)CC3)c2cc[nH]c2n1` [Example 113, N^2-(4-(1-(2-(dimethylamino)ethyl)-1H-pyrazol-4-yl)-2-methoxyphenyl)-N^4-(1-(methylsulfonyl)indolin-7-yl)-7H-pyrrolo[2,3-d]pyrimidine-2,4-diamine], the IC50 was 18.5 nM in assay [1], 16 nM in assay [2] and 1470 nM in assay [3].
Taken in the same sequence, the figures for `COc1cc(-c2cnn(CCN3CCN(C)CC3)c2)ccc1Nc1nc(Nc2cccc3c2N(S(C)(=O)=O)CC3)c2cc[nH]c2n1` [Example 115, N^2-(2-methoxy-4-(1-(2-(4-methylpiperazin-1-yl)ethyl)-1H-pyrazol-4-yl)phenyl)-N^4-(1-(methylsulfonyl)indolin-7-yl)-7H-pyrrolo[2,3-d]pyrimidine-2,4-diamine] were 42.8 nM, 20.7 nM and 2490 nM.
For `COc1cc(N2CCC(N3CCN(C)CC3)CC2)ccc1Nc1ncc(Br)c(Nc2cccc3c2N(S(C)(=O)=O)C(C)(C)C3)n1` [Example 134, 5-bromo-N4-(2,2-dimethyl-1-(methylsulfonyl)indolin-7-yl)-N2-(2-methoxy-4-(4-(4-methylpiperazin-1-yl)piperidin-1-yl)phenyl)pyrimidine-2,4-diamine] the same measures were 0.8 nM, 0.3 nM and 11.5 nM.
Taken in the same sequence, the figures for `COc1cc(N2CCC(N3CCN(C)CC3)CC2)ccc1Nc1ncc(Br)c(Nc2cccc3c2N(S(C)(=O)=O)C2(CC2)C3)n1` [Example 136, 5-bromo-N2-(2-methoxy-4-(4-(4-methylpiperazin-1-yl)piperidin-1-yl)phenyl)-N4-(1′-(methylsulfonyl)spiro[cyclopropane-1,2′-indolin]-7′-yl)pyrimidine-2,4-diamine] were 0.9 nM, 0.3 nM and 1.4 nM.
On to `COc1cc(Nc2nc(Nc3cccc4c3N(S(C)(=O)=O)CC4)c3cc[nH]c3n2)cc(F)c1N1CCC(N2CCN(C)CC2)CC1` [Example 148, N2-(3-fluoro-5-methoxy-4-(4-(4-methylpiperazin-1-yl)piperidin-1-yl)phenyl)-N4-(1-(methylsulfonyl)indolin-7-yl)-7H-pyrrolo[2,3-d]pyrimidine-2,4-diamine], for which the figures for the IC50 in assay [1], in assay [2] and in assay [3] were 6.5 nM, 9.9 nM and 1390 nM, respectively.
For `COc1cc(Nc2nc(Nc3cccc4c3N(S(C)(=O)=O)CC4)c3cc[nH]c3n2)c(F)cc1N1CCC(N2CCN(C)CC2)CC1` [Example 149, N2-(2-fluoro-5-methoxy-4-(4-(4-methylpiperazin-1-yl)piperidin-1-yl)phenyl)-N4-(1-(methylsulfonyl)indolin-7-yl)-7H-pyrrolo[2,3-d]pyrimidine-2,4-diamine] the same measures were 0.4 nM, 0.4 nM and 22.1 nM.
Regarding `CN1CCN(C2CCN(c3ccc(Nc4nc(Nc5cccc6c5N(S(C)(=O)=O)CC6)c5cc[nH]c5n4)nc3)CC2)CC1` [Example 154, N2-(5-(4-(4-methylpiperazin-1-yl)piperidin-1-yl)pyridin-2-yl)-N4-(1-(methylsulfonyl)indolin-7-yl)-7H-pyrrolo[2,3-d]pyrimidine-2,4-diamine], the IC50 in assay [1] turned out to be 2.2 nM; in assay [2], 2.7 nM; in assay [3], 303 nM.
With `COc1cc(N2CCC(N3CCN(C)CC3)CC2)c(C)cc1Nc1ncc(Br)c(Nc2cccc3c2N(S(C)(=O)=O)CC32CC2)n1` [Example 181, 5-bromo-N2-(2-methoxy-5-methyl-4-(4-(4-methylpiperazin-1-yl)piperidin-1-yl)phenyl)-N4-(1′-(methylsulfonyl)spiro[cyclopropane-1,3′-indolin]-7′-yl)pyrimidine-2,4-diamine], the IC50 in assay [1] is 0.6 nM; in assay [2] it was 0.3 nM; in assay [3], 0.9 nM.
For `CN1CCN(C2CCN(c3ccc(Nc4nc(Nc5cccc6c5N(S(C)(=O)=O)CC6)c5cc[nH]c5n4)c4c3OCO4)CC2)CC1` [Example 182, N2-(7-(4-(4-methylpiperazin-1-yl)piperidin-1-yl)benzo[d][1,3]dioxol-4-yl)-N4-(1-(methylsulfonyl)indolin-7-yl)-7H-pyrrolo[2,3-d]pyrimidine-2,4-diamine] the same measures were 1.5 nM, 1.2 nM and 230 nM.
